PMC12570502, “Kinetic characterization of RNA synthesis catalyzed by the model hyperthermophilic archaeon Thermococcus kodakarensis RNA polymerase” (mSphere, 2025)

Target: T1, T. k. RNAP (Thermococcus kodakarensis RNA polymerase) (Thermococcus kodakarensis, UniProt Q5JE32+Q5JE33+Q5JE34)
T1 construct: gene rpo1N; assembled on synthetic RNA:DNA scaffold (EC+10); with DNA-directed RNA polymerase subunit Rpo3; DNA-directed RNA polymerase subunit Rpo4; DNA-directed RNA polymerase subunit Rpo5; DNA-directed RNA polymerase subunit Rpo6; DNA-directed RNA polymerase subunit Rpo7; DNA-directed RNA polymerase subunit Rpo10; DNA-directed RNA polymerase subunit Rpo11; DNA-directed RNA polymerase subunit Rpo12
Test: chemical quench-flow single-nucleotide addition, global fit (MENOTR)
Type: biochemical
Conditions: 25 °C, pH 8.39, Mg2+, heparin trap; elongation complex EC+10 on RNA:DNA scaffold; kinetic-model Kd with k1 fixed at 1 × 10^8 M^-1 s^-1; active site
Text: chemical quench-flow single-nucleotide addition, global fit (MENOTR) on T. k. RNAP (Thermococcus kodakarensis RNA polymerase)

- Kd: 2980 nM
Compound: Nc1ncnc2c1ncn2[C@@H]1O[C@H](COP(=O)(O)OP(=O)(O)OP(=O)(O)O)[C@@H](O)[C@H]1O [ATP]
